Experimental data published in paper PMC7562955 (Nature Communications, 2020).
Values after ≈ are worked out from the molar mass of the structure shown.

Assays:
[1] = Solubility measurement in isotonic buffer; assay type: physicochemical; conditions: isotonic disodium hydrogen phosphate/citric acid buffer, 25 °C, aqueous buffer, kinetic from dmso stock; pH 7.4 buffer
Protocol: Compound was dissolved in dimethyl sulfoxide at 10 mM. A 1.75% disodium hydrogen phosphate aqueous solution and a 5.53% citric acid aqueous solution were mixed while monitoring with a pH meter to prepare an isotonic buffer solution having a pH of 7.4. The dimethyl sulfoxide solution and the isotonic buffer solution of pH 7.4 was mixed and shaken at 110 rpm for 90 min at 25 °C by a constant temperature incubator shaker. After standing for 16–20 h, the mixture was centrifuged to precipitate insoluble matter, and the supernatant was collected. Separately, standard solutions of the compound were prepared by dissolving the compound in a mixture of acetonitrile and water (1:1). The analytical sample and the standard solutions were measured by UHPLC-UV (Waters, USA). The degree of solubility was calculated by comparing the peak area of the analytical sample with standard solutions.

TLR7 = molecular target: T1, TLR7 (Homo sapiens, UniProt Q9NYK1); experiment: Human TLR7 reporter gene agonistic activity assay; assay type: cell-based; set-up: host or cells: HEK293 (TLR7/NF-κB/SEAPorter)
T1 sequence (Q9NYK1 27-1049): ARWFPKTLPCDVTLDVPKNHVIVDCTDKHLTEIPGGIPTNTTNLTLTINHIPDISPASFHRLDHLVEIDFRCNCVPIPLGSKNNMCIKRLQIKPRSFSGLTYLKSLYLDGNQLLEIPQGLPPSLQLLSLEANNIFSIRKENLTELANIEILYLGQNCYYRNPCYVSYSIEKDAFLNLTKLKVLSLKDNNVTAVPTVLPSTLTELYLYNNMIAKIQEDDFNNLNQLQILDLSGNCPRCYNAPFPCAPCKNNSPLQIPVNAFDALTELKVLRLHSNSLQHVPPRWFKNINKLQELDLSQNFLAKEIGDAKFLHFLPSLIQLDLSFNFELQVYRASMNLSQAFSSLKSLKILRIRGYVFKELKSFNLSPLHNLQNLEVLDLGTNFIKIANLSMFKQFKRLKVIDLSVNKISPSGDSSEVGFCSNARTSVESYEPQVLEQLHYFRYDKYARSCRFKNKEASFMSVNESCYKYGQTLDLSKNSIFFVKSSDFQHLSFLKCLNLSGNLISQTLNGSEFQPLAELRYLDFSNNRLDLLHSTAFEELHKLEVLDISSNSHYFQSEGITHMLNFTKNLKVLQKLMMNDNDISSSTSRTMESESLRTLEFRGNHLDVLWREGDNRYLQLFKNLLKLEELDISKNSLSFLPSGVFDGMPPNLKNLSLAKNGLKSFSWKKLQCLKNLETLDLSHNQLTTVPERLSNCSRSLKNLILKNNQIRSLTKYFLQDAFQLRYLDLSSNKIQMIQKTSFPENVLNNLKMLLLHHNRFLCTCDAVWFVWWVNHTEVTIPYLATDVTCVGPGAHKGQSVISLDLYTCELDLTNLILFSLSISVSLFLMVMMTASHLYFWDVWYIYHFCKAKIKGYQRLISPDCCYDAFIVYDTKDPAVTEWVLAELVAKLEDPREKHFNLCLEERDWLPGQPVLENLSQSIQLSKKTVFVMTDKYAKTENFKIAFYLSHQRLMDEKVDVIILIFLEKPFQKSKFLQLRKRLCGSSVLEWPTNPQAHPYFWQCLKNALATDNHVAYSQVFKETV
Protocol: Compounds were dissolved in dimethyl sulfoxide. Before stimulation with compound, Human TLR7 reporter cell line (Novus Biological) was seeded in 96-well microtiter plate (AGC techno glass) at 5 × 10^4 cells/well in DMEM (GIBCO) with 10% fetal bovine serum (GIBCO), and 10 ug/ml Blastcidin S HCl (GIBCO) and incubated at 37 °C in 5% CO2. The plates were incubated over-night and then stimulated with various concentrations of compound and R848. The plates were then incubated an additional 20 ± 1 h at 37 °C in 5% CO2 and then the secreted embryonic alkaline phosphatase (SEAP) activity was measured as activation of human TLR7. The SEAP activity was evaluated as follows: pNPP (Invitrogen, USA) was added to the incubated sample (50 μl/well); after 15 min, 4 M sodium hydroxide solution (nacalai tesque, Japan) was added thereto (50 μl/well) to quench the reaction; and the absorbance of each sample was measured at 405 nm with microplate reader SpectraMax M4 (Molecular Devices, USA).

CCCCOc1nc(N)c2nc(-c3cccnc3)n(Cc3ccccc3)c2n1 [Cpd-5]
solubility at 90 min [1]: 0.3 µg/mL (≈ 0.801 µM)
activation of TLR7 (TLR7): without causing any inhibition of either TLR8 or TLR9 and activation of TLR7
activation of human TLR7, reporter signal (TLR7; compound 0.001 nM (as headed)): -0.0519
activation of human TLR7, reporter signal (TLR7; compound 0.003 nM (as headed)): -0.05305
activation of human TLR7, reporter signal (TLR7; compound 0.01 nM (as headed)): -0.08885
activation of human TLR7, reporter signal (TLR7; compound 0.03 nM (as headed)): -0.06455
activation of human TLR7, reporter signal (TLR7; compound 0.1 nM (as headed)): -0.0507
activation of human TLR7, reporter signal (TLR7; compound 0.3 nM (as headed)): -0.02125
activation of human TLR7, reporter signal (TLR7; compound 1 nM (as headed)): -0.05725
activation of human TLR7, reporter signal (TLR7; compound 3 nM (as headed)): -0.0655
activation of human TLR7, reporter signal (TLR7; compound 10 nM (as headed)): -0.0852
activation of human TLR7, reporter signal (TLR7; compound 30 nM (as headed)): -0.0846
activation of human TLR7, reporter signal (TLR7; compound 100 nM (as headed)): -0.0973

CCOc1nc(N)c2nc(-c3cncc(F)c3)n(Cc3ccc(CN4C[C@@H]5C[C@H]4CN5C)cc3)c2n1 [Cpd-6]
solubility at 90 min [1]: > 150 µg/mL
activation of human TLR7, reporter signal (TLR7; compound 0.001 nM (as headed)): -0.07495
activation of human TLR7, reporter signal (TLR7; compound 0.003 nM (as headed)): -0.076
activation of human TLR7, reporter signal (TLR7; compound 0.01 nM (as headed)): -0.1139
activation of human TLR7, reporter signal (TLR7; compound 0.03 nM (as headed)): -0.0956
activation of human TLR7, reporter signal (TLR7; compound 0.1 nM (as headed)): -0.074
activation of human TLR7, reporter signal (TLR7; compound 0.3 nM (as headed)): -0.01435
activation of human TLR7, reporter signal (TLR7; compound 1 nM (as headed)): -0.0641
activation of human TLR7, reporter signal (TLR7; compound 3 nM (as headed)): -0.07475
activation of human TLR7, reporter signal (TLR7; compound 10 nM (as headed)): -0.1166
activation of human TLR7, reporter signal (TLR7; compound 30 nM (as headed)): -0.1098
activation of human TLR7, reporter signal (TLR7; compound 100 nM (as headed)): -0.12

CCOc1nc(C)c2nc(-c3cncc(F)c3)n(Cc3ccc(CN4C[C@@H]5C[C@H]4CN5C)cc3)c2n1 [Cpd-7]
solubility at 90 min [1]: > 150 µg/mL
activation of human TLR7, reporter signal (TLR7; compound 0.001 nM (as headed)): -0.0428
activation of human TLR7, reporter signal (TLR7; compound 0.003 nM (as headed)): -0.04595
activation of human TLR7, reporter signal (TLR7; compound 0.01 nM (as headed)): -0.1002
activation of human TLR7, reporter signal (TLR7; compound 0.03 nM (as headed)): -0.06165
activation of human TLR7, reporter signal (TLR7; compound 0.1 nM (as headed)): -0.0434
activation of human TLR7, reporter signal (TLR7; compound 0.3 nM (as headed)): -0.02775
activation of human TLR7, reporter signal (TLR7; compound 1 nM (as headed)): -0.0578
activation of human TLR7, reporter signal (TLR7; compound 3 nM (as headed)): -0.0693
activation of human TLR7, reporter signal (TLR7; compound 10 nM (as headed)): -0.1036
activation of human TLR7, reporter signal (TLR7; compound 30 nM (as headed)): -0.0961
activation of human TLR7, reporter signal (TLR7; compound 100 nM (as headed)): -0.09835
